Measured values reported in US6682897B1, “Peptides derived from human heat protein 60 for treatment of diabetes, compositions, methods and kits” (Yeda Research and Development Co. Ltd., priority 1995, dated 2004).
Where “and” joins values, the source holds several entries; their conditions need not be identical. Equal entries are not always repeated. Entries after “also recorded” stand apart in the source; their conditions may differ. Marks after values point to notes of the source that are not given here.

Columns and labels:
draining lymph nodes = experiment: T-cell proliferative responses of NOD mice to peptides (Example 4, FIG. 3); assay type: cell-based; settings: NOD mice immunized with 25 μg peptide in IFA, lymph nodes 10 days later, 20 μg/ml
Protocol: FIG. 3 is a graph showing T-cell proliferative responses of NOD mice to peptides. Groups of three NOD mice were […] with peptides mouse p12, mouse p277, GAD-p35 and MT-p278 in IFA each at a dose of 25 μg in IFA. The draining lymph nodes were removed 10 days later and assayed for proliferative responses to the corresponding peptide at the concentrations of 5, 10, 20, and 50 μg/ml. The stimulation at the optimal concentration of 20 μg/ml is shown. The following ranges of cpm were obtained in medium controls: mouse p12, 881; mouse p277, 1243; MT-p278, 698 and GAD-p35 1430. Peptide mouse p38 is a peptide derived from mouse hsp60 (556-573), which has no sequence homology with the tested peptides and serves as a negative control of specificity. […] Each assay was done in triplicates for which the SD values are indicated by the bars. There was no cross-reactivity between the peptides (not shown).
(§1) (iii) T-Cell proliferation to peptides. Mice. Nine week old NOD mice or mice of other strains were immunized in the hind foot pads with 0.1 ml of an emulsion containing 25 μg peptide in complete Freund's adjuvant (CFA; Difco, Detroit, Mich.) mixed with an equal volume of phosphate-buffered saline (PBS). The draining popliteal lymph nodes were removed 10 days later and suspensions of lymphocytes in triplicate cultures were tested for proliferation in the presence of the various peptides (5 μg/ml) using the incorporation of [^3H]-thymidine as described (Elias et al., 1991). The results are shown as the stimulation index (SI): the ratio of the mean cpm in the presence of the test peptide to the mean cpm of control cultures without the peptide. Standard errors were always less than 10% of the means.
Spontaneous T cell responses in pre-diabetic NOD mice were detected to the mouse p277 peptide (Elias et al., 1991; Birk et al., 1996) and to larger fragments of the mouse hsp60 molecule that contained the mouse p277 sequence (Birk et al., 1996). […] Other peptides immunogenic for NOD mice are the MT-p278 peptide (residues 458-474 in the Mycobacterial hsp60 molecule), and GAD-p35 (residues 524-543 in the GAD65 molecule).

female NOD mice = experiment: Peptide treatment of 10-week old NOD mice, development of diabetes (Example 4, FIG. 4); assay type: in vivo; settings: single s.c. injection in IFA at 10 weeks, observed through 8 months of age, vs IFA alone
Protocol: FIG. 4 is a graph showing the effect of peptide administration on diabetes. Groups of 10-20 NOD mice were treated at 10 weeks of age with 100 μg of mouse p12, p277, p35-GAD or MT-p278 in IFA, or IFA alone. The mice were bled monthly and followed for the onset of hyperglycemia.
(§2) (iv) Treatment and follow-up. Peptides, […], in PBS, were emulsified with an equal volume of IFA and injected subcutaneously into 10-week-old NOD females as described (Elias and Cohen, 1995). Control mice received an equal volume of PBS emulsified in IFA. The mice were monitored monthly for non-fasting blood glucose at 10am using the Blood Glucose Sensor (MediSense. Inc., Waltham, Mass.). Mice with a blood glucose greater than 11.1 mmol/L were considered to be diabetic; this concentration of glucose was greater than 3 standard deviations above the mean blood glucose concentration measured in non-diabetic mice (Elias and Cohen, 1995). Histological examination of the islets of the pancreas was done on sections stained with hematoxylin and eosin. The sections were scored independently by two observers who both were unaware of the identity of the groups. The chi square test was used to ascertain the statistical differences between the various treatments.
Following a protocol shown to be effective with mouse p277(Elias et al., 1991; Elias and Cohen, 1994; Elias and Cohen, 1995), groups of 10-week old female NOD mice were treatedby a single subcutaneous injection of each peptide ([…]) emulsified in IFA.

[1] = test system: serum antibodies of the IgG1, IgG2a and IgG2b isotypes; experiment: Serum anti-peptide antibody isotypes by ELISA in peptide-treated NOD mice (FIG. 5); assay type: in vivo; settings: for antibody titers of the IgG1 and IgG2b isotypes: peptide-treated NOD mice, sera diluted 1:50, ELISA
Protocol: FIGS. 5A-5D show the IgG1, IgG2a and IgG2b antibody isotypes in response to peptide treatment. Mice were treated as described in the legend to FIG. 4. Individual samples were analyzed for antibodies to mouse p12 A; p277 B; GAD-p35 C; and MT-p278 D, of the IgG1, IgG2a and IgG2b isotypes. Similar effects were obtained in two experiments. The results are presented as the absorbance at 405 nm (OD) of 10 individual mice in each group. The level of significance of the prevalence of IgG1 and IgG2b antibodies in groups A and B compared to C and D is P<0.001. The differences between the levels of IgG1 and IgG2b antibodies compared to the IgG2a antibodies in groups A and B were significant (P<0.001). There was no cross-reactivity between the antibodies (not shown).
(v) Serum Antibodies. Mice were bled monthly to detect antibody responses. The ELISA assay was done as described (Elias et al., 1991). Briefly, flat bottom Maxi-sorb plates (Nunc, Roskilde, Denmark) were coated, for the detection of anti-peptide antibodies, with […] of peptide in PBS, at a concentration of […] for 2 h at room temperature followed by over night incubation at 4° C. After incubation with peptide, the plates were washed and blocked for 2 h at 37° C. with 7% BSA (Sigma) in PBS. Sera were diluted 1:50 then added for 2 h at 37° C., followed by incubation for 2 h with […] of goat anti-mouse IgG (gamma chain Fc specific) conjugated to alkaline phosphatase (Jackson, Philadelphia, Pa.). After washing, the plates were incubated with the substrate, diethanolamine (Sigma) and read using an ELISA reader at 405 nm.
Successful treatment of STZ-induced diabetes with mouse peptide p277 was associated with the appearance of anti-peptide antibodies predominantly of the IgG1 and IgG2b isotypes (Elias and Cohen, 1996). The peptide-treated NOD mice for their serum antibodies was therefore examined. […] Thus, effectiveness in inhibiting diabetes was associated with the induction of an antibody response mainly of the IgG1 and IgG2b isotypes.

[2] = test system: spleens of female NOD mice; experiment: Spontaneous T-cell responses in spleens of female NOD mice (longitudinal study); assay type: cell-based; settings: female NOD mice at ages 3-16 weeks
[3] = test system: draining popliteal lymph node lymphocytes; experiment: T-cell proliferation of draining lymph node cells of NOD mice immunized with hsp60 peptides in CFA (Example 1, FIG. 2); assay type: cell-based; settings: NOD mice immunized with peptide emulsified in CFA in hind foot pads, assayed after 10 days
Protocol: as §1, with “1991).” for “1991). The results are shown as the stimulation index (SI): the ratio of the mean cpm in the presence of the test peptide to the mean cpm of control cultures without the peptide. Standard errors were always less than 10% of the means.”
The immunogenicity of the hsp60 peptides p12, p32, p277(Val^6-Val^11) and p278 in NOD mice was tested by immunizing the mice with the peptides emulsified in CFA in the hind foot pads, and assaying the proliferative responses of draining lymph node cells after 10 days as described above in section iii(a).

NOD/Lt female mice = experiment: Treatment of NOD mice with peptides in IFA: diabetes and mortality (Example 2); assay type: in vivo; settings: 100 μg peptide in IFA s.c., nine-week old NOD/Lt females; for Diabetes (%): persistent blood glucose over 11.1 mmol/l at 25 weeks of age
Protocol: as §2, with “Mice with a blood glucose greater than 11.1 mmol/L were considered to be diabetic; this concentration of glucose was greater than 3 standard deviations above the mean blood glucose concentration measured in non-diabetic mice (Elias and Cohen, 1995).” left out
To test whether the p12 and p32 peptides can block the progression of diabetes as p277(Val^6-Val^11), the p277(Val6-Val^11), p12 or p32 peptides (100 μg in a 0.1 cc emulsion of IFA) were administered subcutaneously to groups of 10-12 nine-week old NOD/Lt female mice of the Jackson Laboratory, Bar-Harbor, Me. Diabetes, determined as persistent blood glucose levels over 11.1 mmol/l, was tested at 25 weeks of age. Control mice were untreated or were treated with p278.

[4] = test system: Peripheral mononuclear cells (PBMC) of IDDM patients; experiment: T-cell proliferative response of PBMC from newly diagnosed IDDM patients (Example 3); assay type: cell-based, human; settings: for T-cell proliferative response (SI): antigen 10 μg/ml, 6 days, SI more than 2.0 positive
Protocol: To determine the T-cell responses to the various hsp60 peptides, lymphocytes from the peripheral blood of newly diagnosed (2 weeks-4 months) IDDM patients were tested in a proliferation assay. 10-20 ml of blood were removed into a sterile tube containing heparin as anti-coagulant and diluted in PBS 1:2. Peripheral mononuclear cells (PBMC) were isolated by centrifuging the blood over a lymphoprep layer. The PBMC were tested for proliferation in triplicates, in the presence of the various antigens (10 μg/ml) for 6 days using the incorporation of [^3H]-thymidine as a measure of proliferation. The antigens tested were human hsp60 or the hsp60 peptides p277(Val^6-Val^11), p12, p32 and control peptide p278. The T cell proliferative response is depicted as stimulation index (SI): The ratio between peptide-stimulated thymidine incorporation and background (no antigen added) thymidine incorporation by the T cells.

[5] = compared with p277; cited from earlier work

## SRLSKVAPVIKARMMEYGTT [GAD-p35, peptide from the GAD65 molecule (524-543)]
Draining lymph nodes
  immunogenicity (T-cell proliferative response): immunogenic, but less so
Female NOD mice
  development of diabetes: no different than was treatment with IFA alone
[1]; 10 individual mice per group, ELISA
  mice that made specific IgG1 antibodies: none
[1]; compared with mouse p12 and mouse p277 groups
  titers of IgG2b antibodies: significantly lower titers
[1]
  antibody titers of the IgG1 and IgG2b isotypes: did not respond as strongly

## EEIAQVATISANGDKDIGNI [mouse p12]
Draining lymph nodes
  immunogenicity (T-cell proliferative response): strong response
[2]
  spontaneous T-cell responses: no spontaneous responses
Female NOD mice
  development of diabetes: significantly protected; also recorded: effective in inhibiting the development of diabetes
[1]
  antibody titers of the IgG1 and IgG2b isotypes: effective in inducing strong antibody titers

## NEDQKIGIEIIKRTLKI [p278, human hsp60 residues 458-474; control peptide]
[3]
  immunogenicity (proliferative responses of draining lymph node cells): non-immunogenic
NOD/Lt female mice
  Mortality (%): 45%
  therapeutic effect in treatment of diabetes: no therapeutic effect
  Diabetes (%): 90%
[4]; Patient 1
  T-cell proliferative response (SI): 0.5
[4]; Patient 2
  T-cell proliferative response (SI): 0.8
[4]; Patient 3
  T-cell proliferative response (SI): 0.7
[4]; Patient 4
  T-cell proliferative response (SI): 0.9

## p277(Val^6): p277 variant with cysteine at position 6 replaced by valine (VLGGGVALLRCIPALDSLTPANED; p277 peptide (437-460); UniProt P10809 437-460, looked up, variant C442V)
[5]
  activity in the treatment of diabetes: as active as p277

## p277(Val^11): p277 variant with cysteine at position 11 replaced by valine (VLGGGCALLRVIPALDSLTPANED; p277 peptide (437-460); UniProt P10809 437-460, looked up, variant C447V)
[5]
  activity in the treatment of diabetes: as active as p277

## hsp60: human 60 KDa heat shock protein (SEQ ID NO:1)
[4]; Patient 1
  T-cell proliferative response (SI): 5.6
[4]; Patient 2
  T-cell proliferative response (SI): 7.5
[4]; Patient 3
  T-cell proliferative response (SI): 8.0
[4]; Patient 4
  T-cell proliferative response (SI): 3.4
[4]; Patient 5
  T-cell proliferative response (SI): 1.2
[4]; Patient 6
  T-cell proliferative response (SI): 6.7
[4]; Patient 7
  T-cell proliferative response (SI): 10.3
[4]; Patient 8
  T-cell proliferative response (SI): 1.3
[4]; of 8 newly diagnosed IDDM patients, SI more than 2.0
  patients that responded: 6/8

## EIIKRTLKIPAMTIAKNAGV [p32]
[3]
  immunogenicity (proliferative responses of draining lymph node cells): strongly immunogenic
NOD/Lt female mice
  Mortality (%): 25* %
  therapeutic effect in treatment of diabetes: effective in treatment of diabetes
  Diabetes (%): 30% and 50* %

## EEIAQVATISANGDKEIGNI [p12]
[3]
  immunogenicity (proliferative responses of draining lymph node cells): strongly immunogenic
NOD/Lt female mice
  Mortality (%): 10* %
  therapeutic effect in treatment of diabetes: effective in treatment of diabetes
  Diabetes (%): 20%
